Source: patent publication US4665224A, “Ester of (+) 6-methoxy-α-methyl-2-naphthalene acetic acid having mucosecretolytic, anti-inflammatory, analgesic, antipyretic activity, a process for its preparation and pharmaceutical compositions thereof” (priority 1984, dated 1987)

Columns and labels:
[1] = system: phenylquinone abdominal contractions; experiment: Analgesic activity, method of phenylquinone (abdominal contractions); type: in vivo, mouse (Swiss albine, female); conditions: mouse, oral; for ED50: 20 min, 30 minutes before phenylquinone, contractions during 20 minutes, read-out: ED50 in mg/kg os.
Method: Female Swiss albine mice (20-25 g), fasting since 2 hours are employed.
The test drug is administered orally 30 minutes before endoperitoneal injection of phenylquinone (0.08 mg/mouse).
The characteristic abdominal contractions are counted individually during a 20 minutes period.

[2] = system: gastric lesions or submucosa hemorrhages; experiment: Gastric tolerability, gastric ulcerogenesys by repeated drug administrations; type: in vivo, rat (Wistar albine, female); conditions: rat, oral for 5 days, result in words
Method: Method of gastric ulcerogenesys by repeated drug administrations.
Fed female Wistar albine rats (140-160 g of initial body weight) are used.
The test drug is administered orally for 5 days. At the end of the experiment, the rat's stomach is withdrawn, it is dissected along the lesser curvature, washed and observed in order to disclose the presence of either gastric lesions or manifest submucosa hemorrhages.

[3] = system: carrageenin induced oedema; experiment: Antiphlogistic activity, carrageenin induced oedema; type: in vivo, rat (Wistar albine, female); conditions: 3 h; rat, oral, one hour before carrageenin; paw volume at three hours; read-out: ED50 in mg/kg os.
Method: Method of the carrageenin induced oedema according to Winter C. A. et al.--proc. Soc. Exp. Biol. Med--111, 544-7, 1962.
Female Wistar albine rats (120-160 grams of body weight) are utilized.
The test drug is administered orally one hour before injection of a carrageenin water suspension into the right hind paw (1%, injected volume […]).
The volume of the injected paw is recorded simultaneously with the carrageenin injection and three hours after the same by a plethysmometer (U. Basile, mod. 7150-Comerio, Varese).

[4] = system: mouse; experiment: in vivo; conditions: oral, result in words
Method: (§1) Method for studying the lethal dose 50 (LD50) in the mouse after a single administration.
(§2) Groups of 10 Swiss albine, female, adult mice (20-22 grams of body weight) fasting from the evening preceding the test, are treated orally with varying doses of the test drup suspended into hydroxyethylcellulose (0.5% w/v.)
(§3) Thereafter, the animals are fed again.

[5] = in vivo; conditions: mouse, in vivo, po
Method: as §1, §2, §3

[6] = system: yeast induced pyrexia; experiment: Antipyretic activity, yeast induced pyrexia in the rat; type: in vivo, rat (Wistar albine, female); conditions: for ED50: Rattus norvegicus, po, read-out: ED50 in mg/kg os.
Method: Method of yeast induced pyrexia in the rat.
Female Wistar albine rats, weighing 100-140 g, are employed. Animals having a rectal basal temperature from 36° to 37° C. are selected.
The testing substances are administered orally simultaneously with the pyretic agent (dry brewer's yeast suspended in water at 20% concentration,administered volume 15 ml/kg, subcutaneously) to groups of 5 animals per dose.
After 4,5,6,7 and 24 hours from the treatment, the rectal temperature of the animals is recorded by an Ellab RM6 probe, connected to an Ellab mod. TE-3 thermometer.
The activity of the drugs is evaluated by utilizing a temperature index which is given by the algebraic sum of the differences in the rectal temperature between the measured values at different times and the basal value.

[7] = system: bronchial mucus; experiment: Bronchosecretagogue activity, quantitative evaluation of the rabbit bronchial secretion; type: in vivo, rabbit (brown, male); conditions: for Percent increase of the bronchial mucus: second 4 h period versus first; for bronchosecretagogue / mucolytic activity: oral, result in words
Description: Method of quantitative evaluation of the rabbit bronchial secretion according to Scuri R. et al. Boll. Chim. Farm. 119, 181-7; 1980.
Adult male brown rabbits (2.8-3.5 kg of body weight) to which a T shaped tracheal cannula is applied by surgical operation, as described in the above cited bibliographic reference, are used.
To the cannula, a container for periodical collection of the bronchial secretion is applied.
The study of mucoproduction, started on the fourth day after the operation, is divided into two periods (of 4 hours each), for collecting and measuring the secreted mucus. The action of the test drug is tested by administering it orally at the beginning of the second period of mucus collection and evaluating the percent increase in the mucus production (as measured gravimetrically) in the second period in comparison with the first period.

[8] = listed as compound of the present invention

| SMILES | ED50 [1] | analgesic activity versus (+)6 methoxy-α-methyl-2-naphthalene acetic acid ([1]; result in words) | gastric tolerability [2, 8] | gastric tolerability ([2]; listed as ester of formula (I)) | gastric tolerability ([2]; listed as such compound) | ED50 [3] | acute toxicity [4] | LD50 at 336 h [5] | ED50 [6] | antipyretic activity ([6]; rat, oral, result in words) | Percent increase of the bronchial mucus ([7]; 600 mg/kg os.) | bronchosecretagogue / mucolytic activity [7, 8] | bronchosecretagogue / mucolytic activity ([7]; listed as ester of formula (I)) | Percent increase of the bronchial mucus ([7]; 300 mg/kg os.) |
| --- | --- | --- | --- | --- | --- | --- | --- | --- | --- | --- | --- | --- | --- | --- |
| COc1ccc2cc([C@H](C)C(=O)OCC3=CCC(C(C)(C)O)CC3)ccc2c1 (single isomer, unassigned; (+)) [CO/1446] | 3.9 mg/kg | significantly more active | well tolerated by the gastric mucose of the rat | very good gastric tolerability | better tolerated than (+)6-methoxy-α-methyl-2-naphthalene acetic acid | 30 mg/kg | very low acute toxicity | 4000 mg/kg | 30 mg/kg | good antipyretic activity, though lower than the control | 32% | has bronchosecretagogue activity in the rabbit | marked mucolytic activity of the bronchial secretion |  |
| COc1ccc2cc([C@H](C)C(=O)O)ccc2c1 [(+)6-methoxy-α-methyl-2-naphthalene acetic acid, reference compound] | 18.5 mg/kg |  |  |  |  | 35 mg/kg |  |  | 14 mg/kg |  |  |  |  | 0% |
